The record followed here is US20080312435A1, “Imine Compound” (TAISHO PHARMACEUTICAL CO., LTD., priority 2004, published 2008).

As a reminder, the IC50 is the concentration at which inhibition is half-maximal. The melting point is the temperature of the solid-liquid transition.

The first series deals with T1, human CB2 receptor (Homo sapiens, UniProt P34972).
T1 construct: expressed in transfected cells
T1 sequence (P34972 whole entry): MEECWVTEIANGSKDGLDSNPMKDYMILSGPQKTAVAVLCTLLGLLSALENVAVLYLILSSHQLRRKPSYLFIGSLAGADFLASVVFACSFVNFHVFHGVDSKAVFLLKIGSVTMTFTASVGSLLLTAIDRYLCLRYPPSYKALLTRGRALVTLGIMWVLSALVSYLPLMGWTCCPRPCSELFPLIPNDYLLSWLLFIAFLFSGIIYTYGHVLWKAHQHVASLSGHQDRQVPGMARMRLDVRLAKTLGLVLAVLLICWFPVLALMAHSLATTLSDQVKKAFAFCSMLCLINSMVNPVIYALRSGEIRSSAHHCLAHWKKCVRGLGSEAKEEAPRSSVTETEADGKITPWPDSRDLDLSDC
Kind of series: Human CB2 receptor binding inhibition test ([3H]CP-55,940, CHO membrane fractions).
Settings: not given
The source says:
Human CB2 Receptor Binding Inhibition Test
First, cDNA sequence (Munro et al., Nature, 1993, 365, 61-65) encoding a human CB2 receptor was inserted in the forward direction in an animal-cell expression vector, pTARGET Vector (manufactured by Promega) at a region downstream of a CMV promoter. Host cells CHO-DHFR(−) were transfected with the obtained expression vector with the aid of Lipofectamine (manufactured by Invitrogen) to obtain cells capable of stably expressing the CB2 receptor.
After the filtrate was washed with an assay buffer containing 0.1% bovine serum albumin, the radioactivity on the glass filter was measured by a liquid scintillation counter. Nonspecific binding was measured in the presence of 2.0 μM CP-55,940 (manufactured by Tocris). 50% inhibitory concentration (IC50 value) of the test compound for the specific binding was obtained.
`Cn1c(C(C)(C)C)c/c(=N\C(=O)c2cccc(C(F)(F)F)c2Cl)n1CC1CC1` [Compound No. 476, N-(5-t-butyl-2-cyclopropylmethyl-1,2-dihydro-1-methylpyrazol-3-ylidene)-2-chloro-3-(trifluoromethyl)benzamide] came in with an IC50 of 3.9 nM.

Staying with this series, now noted: [3H]CP-55,940, membrane fractions of CHO cells stably expressing human CB2 receptor, 25° C., 2 hours; read-out: CB2 IC50 (Inhibition of binding to human CB2 receptor).
For the compound `CC(C)(C)c1c/c(=N\C(=O)c2cc(C(F)(F)F)ccc2F)n(CC2CC2)o1` [compound 54], the IC50 amounted to 18.7 nM. Consider `CC(C)(C)c1c/c(=N\C(=O)c2cccc(C(F)(F)F)c2)n(CC2CC2)s1` [compound 57], for which the IC50 was 3.8 nM. Same read-out and setting: to `CCc1ccccc1C(=O)/N=c1\sc(C(C)(C)C)c(C)n1CC` [compound 150] belongs 15 nM; to `CCn1c(C)c(C(C)(C)C)s/c1=N\C(=O)c1ccc(Cl)cc1OC` [compound 168], 5.4 nM; to `Cc1c(C(C)(C)C)s/c(=N\C(=O)c2cccc(Cl)c2)n1CC1CC1` [compound 187], 17 nM.

System in the next series: not given
Test: not given
Settings: not given
`COCCn1c(C)c(C)s/c1=N\C(=O)c1cccc(C(F)(F)F)c1` gave a melting point of 64 to 66 °C. On the same count and under the same terms, then `CCn1c(C)c(C(C)C)s/c1=N\C(=O)c1cccc(C(F)(F)F)c1F`, with 64 to 66 °C; and `Cc1c(C(C)(C)C)s/c(=N\C(=O)c2cccc(C(F)(F)F)c2)n1C`, with 140 to 142 °C; and `Cc1c(C(C)(C)C)s/c(=N\C(=O)c2cccc(F)c2F)n1C`, with 176 to 178 °C. Same read-out and setting: then `O=C(/N=c1\ccccn1CCC1CC1)c1cccc(C(F)(F)F)c1F`, with 56 to 58 °C. Still for that read-out and setting: to `CCOCCn1cccc/c1=N\C(=O)c1cccc(C(F)(F)F)c1F` belongs 104.5 to 105.5 °C; to `Cc1c(C(C)(C)C)s/c(=N\C(=O)c2cc(C(F)(F)F)ccc2F)n1C`, 140 to 142 °C; to `CCn1c(C)c(C(C)(C)C)s/c1=N\C(=O)c1cccc(C(F)(F)F)c1`, 158 to 160 °C. On to `CCn1c(C)c(C(C)(C)C)s/c1=N\C(=O)CC1CCCC1`, for which the melting point was 149 to 150 °C. Still for that read-out and setting: then `CCn1c(C)c(C(C)(C)C)s/c1=N\C(=O)c1cc(C(F)(F)F)ccc1C`, with 63 to 65 °C.

For `Cc1c(C(C)(C)C)s/c(=N\C(=O)c2cccc(C(F)(F)F)c2)n1C(C)C`, the melting point was 135 to 137 °C.

`Cc1c(C(C)(C)C)s/c(=N\C(=O)c2ccc(Cl)cc2)n1CC1CC1` yielded a melting point of 94 to 95 °C. With `O=C(/N=c1\ccccn1CC1CC1)c1cccc(C(F)(F)F)c1`, the melting point fell in the range of 105.5 to 106.5 °C. The same measure, in the same setting: to `Cc1c(C(C)(C)C)s/c(=N\C(=O)c2cccc(N3CCCC3)c2)n1CC1CC1` belongs 118 to 120 °C; to `Cc1c(C(C)(C)C)s/c(=N\C(=O)c2cccc(N3CCCCC3)c2)n1CC1CC1`, 89 to 90 °C. On the same count and under the same terms, then `Cc1c(C(C)(C)C)s/c(=N\C(=O)c2cccc(N3CCN(C)CC3)c2)n1CC1CC1`, with 126 to 128 °C; and `Cc1c(C(C)(C)C)s/c(=N\C(=O)c2cccc(C(N)=O)c2)n1CC1CC1`, with 76 to 78 °C.

Compound `COC(=O)c1ccc(C(=O)/N=c2\sc(C(C)(C)C)c(C)n2CC2CC2)cc1` displayed a melting point of 122 to 123 °C. For `Cc1c(C(C)(C)C)s/c(=N\C(=O)c2ccc(C(=O)O)cc2)n1CC1CC1`, the melting point was in the range of 196 to 197 °C. On the same count and under the same terms, to `O=C(/N=c1\ccc(C(F)(F)F)cn1CC1CC1)c1ccccc1C(F)(F)F` belongs 93 to 93.5 °C; to `Cc1c(CC(C)(C)C(C)(C)C)s/c(=N\C(=O)c2cc(C(F)(F)F)ccc2F)n1CC1CC1`, 88 to 89 °C; to `O=C(/N=c1\ccc(C(F)(F)F)cn1CC1CC1)c1cccc(C(F)(F)F)c1`, 84 to 85 °C. As for `CCCNc1ccc(C(F)(F)F)cc1C(=O)/N=c1\sc(C(C)(C)C)c(C)n1CC1CC1`, the melting point lay in the range of 131 to 132 °C. The compound `COCCNC1=C(C(=O)/N=c2\sc(C(C)(C)C)c(C)n2CC2CC2)CC(C(F)(F)F)C=C1` (centres unmarked) gave a melting point of 131 to 132 °C. The same measure, in the same setting: to `Cc1c(C(C)(C)C)s/c(=N\C(=O)c2cc(C(F)(F)F)ccc2N2CCC2)n1CC1CC1` belongs 100 to 102 °C. With `CCN(CC)c1ccc(C(F)(F)F)cc1C(=O)/N=c1\sc(C(C)(C)C)c(C)n1CC1CC1`, the melting point is 131 to 133 °C. Take `Cc1c(C(C)(C)C)s/c(=N\C(=O)c2cc(C(F)(F)F)ccc2N2CCCCC2)n1CC1CC1`: the melting point was in the range of 138 to 140 °C. Same read-out and setting: to `CCc1ccnc(C(=O)/N=c2\sc(C(C)(C)C)c(C)n2CC2CC2)c1` belongs 104 to 106 °C. Still for that read-out and setting: then `COc1cc(C(=O)/N=c2\sc(C(C)(C)C)c(C)n2CC2CC2)cc(Cl)n1`, with 127 to 128 °C; and `Cc1c(C(C)(C)C)s/c(=N\C(=O)C(F)(F)C(F)F)n1CC1CC1`, with 93 to 94 °C.

The compound `COc1ccc(OC)c(CC(=O)/N=c2\sc(C(C)(C)C)c(C)n2CC2CC2)c1` registered a melting point of 89 to 91 °C. On the same count and under the same terms, to `COCCn1c(C)c(C(C)(C)C)s/c1=N\C(=O)c1ccc(Cl)cc1F` belongs 68 to 69 °C. `Cc1c(C(C)(C)C)s/c(=N\C(=O)c2cccc(C(F)(F)F)c2)n1CCO`: the melting point is 147 to 149 °C. Same read-out and setting: to `Cc1c(C(C)(C)C)s/c(=N\C(=O)c2cccc(C(F)(F)F)c2)n1CCN` belongs 76 to 78 °C; to `Cc1c(C(=O)O)s/c(=N\C(=O)c2cccc(C(F)(F)F)c2)n1CC1CC1`, 291 to 293 °C.

For `Cc1c(C(=O)N(C)C)s/c(=N\C(=O)c2cccc(C(F)(F)F)c2)n1CC1CC1`, the melting point fell in the range of 138 to 140 °C.

Compound `Cc1c(C(=O)NCCN2CCOCC2)s/c(=N\C(=O)c2cccc(C(F)(F)F)c2)n1CC1CC1` displayed a melting point of 156 to 158 °C. The same measure, in the same setting: to `Cc1s/c(=N\C(=O)c2cccc(C(F)(F)F)c2)n(CC2CC2)c1-c1ccccc1` belongs 161 to 162 °C; to `Cc1c(C(C)C)o/c(=N\C(=O)c2cc(C(F)(F)F)ccc2F)n1CC1CC1`, 76 to 78 °C; to `COc1ccc(C(F)(F)F)cc1C(=O)/N=c1\oc(C(C)C)c(C)n1CC1CC1`, 118 to 120 °C. Still for that read-out and setting: to `Cc1ccccc1C(=O)/N=c1/sc2cccc(Cl)c2n1CC1CC1` belongs 146 to 148 °C; to `O=C(/N=c1\ccc(-c2ccccc2)cn1CC1CC1)c1cccc(C(F)(F)F)c1F`, 115 to 116 °C; to `O=C(/N=c1\sc2c(n1CC1CC1)CCCC2)c1cccc(C(F)(F)F)c1`, 159 to 160 °C.

Regarding `COc1ccc/c(=N\C(=O)c2cccc(C(F)(F)F)c2F)n1CC1CC1`, the melting point was in the range of 126 to 128 °C.

In turn, `O=C(/N=c1\c(F)cc(F)cn1CC1CC1)c1cccc(C(F)(F)F)c1F` returned a melting point of 69 to 71 °C. For the compound `COc1ccc(C(=O)/N=c2\cc(C)cc(C)n2C)c(OC)c1`, the melting point is 117.5 to 118 °C. Same read-out and setting: to `Cc1c/c(=N\C(=O)c2cccc(C(F)(F)F)c2F)n(CCC2CC2)n1C` belongs 97 to 98 °C; to `CCOCCn1/c(=N/C(=O)c2cccc(C(F)(F)F)c2F)cc(C)n1C`, 136 to 137 °C. Same read-out and setting: to `Cc1c/c(=N\C(=O)c2cccc(C(F)(F)F)c2F)n(CCOC(C)C)n1C` belongs 88 to 90 °C; to `Cn1c(C(C)(C)C)c/c(=N\C=O)n1CC1CC1`, 122 to 124 °C.

Regarding `CC(C)c1ccccc1C(=O)/N=c1\cc(C(C)(C)C)n(C)n1CC1CC1`, the melting point is 113 to 114 °C. Compound `Cn1c(C(C)(C)C)c/c(=N\C(=O)c2ccccc2C(F)(F)F)n1CC1CC1` gave a melting point of 83 to 85 °C.

On to `Cn1c(C(C)(C)C)c/c(=N\C(=O)c2cccc(Br)c2F)n1CC1CC1`, for which the melting point was 127 to 128 °C.

For `Cc1cccc(C(=O)/N=c2\cc(C(C)(C)C)n(C)n2CC2CC2)c1Br`, the melting point was in the range of 153 to 155 °C. With `Cn1c(C(C)(C)C)c/c(=N\C(=O)c2cc(Cl)ccc2Cl)n1CC1CC1`, the melting point was 164 to 165 °C. Compound `Cn1c(C(C)(C)C)c/c(=N\S(=O)(=O)c2cccc(C(F)(F)F)c2)n1CC1CC1` yielded a melting point of 121 to 122 °C.

The compound `CC(C)(C)c1nn(CC2CC2)/c(=N/C(=O)c2ccc(F)cc2C(F)(F)F)s1` registered a melting point of 76 to 78 °C.

`CC(C)(C)c1nn(CC2CC2)/c(=N/C(=O)c2cnccc2Cl)s1` gave a melting point of 62 to 63 °C. The compound `CC(C)(C)c1nn(CC2CC2)/c(=N/C(=O)c2cc(C(F)(F)F)ccc2F)o1` displayed a melting point of 61 to 63 °C.

As for `COc1ccc(C(F)(F)F)cc1C(=O)/N=c1\cc(C(C)(C)C)on1CC1CC1`, the melting point was in the range of 64 to 65 °C.

The compound `CCn1cc(C)s/c1=N\C(=O)c1cccc(C(F)(F)F)c1F` showed a melting point of 90 to 92 °C. Regarding `Cc1cn(CC2CC2)/c(=N\C(=O)c2cccnc2)s1`, the melting point lay in the range of 115 to 117 °C. The same measure, in the same setting: then `Cc1s/c(=N\C(=O)c2cccc(C(F)(F)F)c2F)n(C)c1C`, with 182 to 183 °C; and `Cc1s/c(=N\C(=O)c2ccccc2Cl)n(CC2CC2)c1C`, with 125 to 127 °C; and `CC(C)n1cccc/c1=N\C(=O)c1cccc(C(F)(F)F)c1F`, with 86 to 88 °C. Same read-out and setting: then `Cc1s/c(=N\C(=O)c2ccc(F)cc2Br)n(CC2CC2)c1C`, with 144 to 146 °C. For `Cc1s/c(=N\C(=O)c2ccc(F)cc2C(F)(F)F)n(CC2CC2)c1C`, the melting point fell in the range of 143 to 144 °C. `CC[C@H](C(=O)/N=c1\sc(C)c(C)n1CC1CC1)c1ccccc1` (racemic) had a melting point of 108 to 110 °C.
